Tests used:
[1] = differential scanning calorimetry (DSC), thermal stability; type: physicochemical; conditions: thermal decomposition
[2] = test system: ANKA strain of P. Berghei; experiment: single dose STI in vivo screen in infected Moro SPF mice; conditions: for antimalarial activity, overall assessment: overall judgement of in vitro and in vivo data of Table 2; for Survival (days) po / Activity (%) po: single 10 mg/kg po; for Survival (days) sc / Activity (%) sc: single 10 mg/kg sc; for Activity (%) po / Activity (%) sc: percent reduction in parasitemia day 3 post-infection
Method: In the single dose STI in vivo screen, Moro SPF mice infected with the ANKA strain of P. Berghei (groups of three mice) were treated on day one post-infection with trioxolanes dissolved or suspended in 3% ethanol and 7% Tween 80. […] Antimalarial activity was measured by percent redution in parasitemia on day three post-infection and survival times compared to an untreated control group. Survival to day 30 post-infection is considered to be a cure.

[3] = test system: P. berghei; experiment: 1-day Peters test against P. berghei in vivo; conditions: 1 day, po

Structure (SMILES)	Tm dec. (° C.) [1] [°C]	also measured
CCN(CC)C(=O)C1CCC2(CC1)OOC1(O2)C2CC3CC(C2)CC1C3 (stereo not shown) [OZ73, Adamantane-2-spiro-3′-8′-diethylaminocarbonyl-1′,2′,4′-trioxaspiro[4.5] decane]	160.2	antimalarial activity, overall assessment [2]: only weakly active
CS(=O)(=O)N1CCC2(CC1)OOC1(O2)C2CC3CC(C2)CC1C3 (stereo not shown) [OZ56, Adamantane-2-spiro-3′-8′-methanesulfonyl-1′,2′,4′-trioxa-8′-azaspiro[4.5]decane]	158.0	–
CC(C)(C)OC(=O)N1CCC2(CC1)OOC1(O2)C2CC3CC(C2)CC1C3 (stereo not shown) [OZ35, Adamantane-2-spiro-3′-8′-t-butoxycarbonyl-1′,2′,4′-trioxa-8′-azaspiro[4.5]decane]	159.4	–
N#CC1(c2ccccc2)CCC2(CC1)OOC1(O2)C2CC3CC(C2)CC1C3 (stereo not shown) [OZ63, Adamantane-2-spiro-3′-8′-cyano-8′-phenyl-1′,2′,4′-trioxaspiro[4.5]decane]	158.3	–
Fc1c(F)c(F)c(C2(c3c(F)c(F)c(F)c(F)c3F)OOC3(O2)C2CC4CC(C2)CC3C4)c(F)c1F (stereo not shown) [OZ45, Adamantane-2-spiro-3′-5′,5′-bis(2′,3′,4′,5′,6′-pentafluorophenyl)-5′,2′,4′-trioxolane]	133.7	–
O=C1c2ccccc2C(=O)N1N=C1CCC2(CC1)OOC1(O2)C2CC3CC(C2)CC1C3 (stereo not shown) [OZ38, Adamantane-2-spiro-3′-8′-(N-phthalimido)imino-1′,2′,4′-trioxaspiro[4.5]decane]	165.1	–
Fc1ccc(C2CCC3(CC2)OOC2(O3)C3CC4CC(C3)CC2C4)cc1 (stereo not shown) [OZ41, Adamantane-2-spiro-3′-8′-(4′-fluorophenyl)-1′,2′,4′-trioxaspiro[4.5]decane]	159.0	P. berghei (1 day) ED50 po [3]: 2.8 mg/kg; P. berghei (1 day) ED90 po [3]: 5.1 mg/kg
c1ccc(CC2(Cc3ccccc3)OOC3(O2)C2CC4CC(C2)CC3C4)cc1 (stereo not shown) [OZ52, Adamantane-2-spiro-3′-5′,5′-dibenzyl-1′,2′,4′-trioxolane]	154.9	–
O=S(=O)(c1ccc(Cl)cc1)N1CCC2(CC1)OOC1(O2)C2CC3CC(C2)CC1C3 (stereo not shown) [OZ57, Adamantane-2-spiro-3′-8′-(4′-chlorobenzenesulfonyl)-1′,2′,4′-trioxa-8′-azaspiro[4.5]decane]	158.0	–
CC(C)C1CCC2(CC1)OOC1(O2)C2CC3CC(C2)CC1C3 (stereo not shown) [OZ40, Adamantane-2-spiro-3′-8′-isopropyl-1′,2′,4′-trioxaspiro[4.5]decane]	164.2	–
Fc1ccc(C2(c3ccc(F)cc3)OOC3(O2)C2CC4CC(C2)CC3C4)cc1 (stereo not shown) [OZ44, Adamantane-2-spiro-3′-5′, 5′-bis(4′-fluorophenyl)-1′,2′,4′-trioxolane]	157.5	–
COC1(c2ccc(F)cc2)CCC2(CC1)OOC1(O2)C2CC3CC(C2)CC1C3 (stereo not shown) [OZ77, Adamantane-2-spiro-3′-8′-(4′-fluorophenyl)-8′-methoxy-1′,2′,4′-trioxaspiro[4.5]decane]	161.3	antimalarial activity, overall assessment [2]: excellent activity
Cc1ccc(S(=O)(=O)N2CCC3(CC2)OOC2(O3)C3CC4CC(C3)CC2C4)cc1 (stereo not shown) [OZ51, Adamantane-2-spiro-3′-8′-(p-toluenesulfonyl)-1′,2′,4′-trioxa-8′-azaspiro[4.5]decane]	152.3	–
OC1(c2ccc(F)cc2)CCC2(CC1)OOC1(O2)C2CC3CC(C2)CC1C3 (stereo not shown) [OZ76, Adamantane-2-spiro-3′-8′-(4′-fluorophenyl)-8′-hydroxy-1′,2′,4′-trioxaspiro[4.5]decane]	149.6	–
O=S(=O)(c1ccccc1)N1CCC2(CC1)OOC1(O2)C2CC3CC(C2)CC1C3 (stereo not shown) [OZ60, Adamantane-2-spiro-3′-8′-benzenesulfonyl-1′, 2′,4′-trioxa-8′-azaspiro[4.5]decane]	152.6	–
CC(=O)OC1(c2ccc(F)cc2)CCC2(CC1)OOC1(O2)C2CC3CC(C2)CC1C3 (stereo not shown) [OZ69, Adamantane-2-spiro-3′-8′-acetoxy-8′-(4′-fluorophenyl)-1′,2′,4′-trioxaspiro[4.5]decane]	164.1	Survival (days) po [2]: 6.3/6.3 days; Survival (days) sc [2]: 6.3/6.3 days
CC1(C)CC(C)(C)CC2(C1)OOC1(O2)C2CC3CC(C2)CC1C3 (stereo not shown) [OZ26, Adamantane-2-spiro-3′-7′,9′-tetramethyl-1′,2′,4′-trioxaspiro[4.5]decane]	173.4	–
CC(C)(C)ON=C1CCC2(CC1)OOC1(O2)C2CC3CC(C2)CC1C3 (stereo not shown) [OZ28, Adamantane-2-spiro-3′-8′-t-butyloxyimino-1′,2′,4′-trioxaspiro[4.5]decane]	162.4	–

Structure (SMILES)	Tm dec. (° C.) [1] [°C]	also measured
CC(C)(C)COC(=O)C1CCC2(CC1)OOC1(O2)C2CC3CC(C2)CC1C3 (stereo not shown) [OZ64, Adamantane-2-spiro-3′-8′-neopentyloxycarbonyl-1′,2′,4′-trioxaspiro[4.5]decane]	163.8	–
CCOC(=O)CCC(=O)N1CCC2(CC1)OOC1(O2)C2CC3CC(C2)CC1C3 (stereo not shown) [OZ53, Adamantane-2-spiro-3′-8′-[3′-(ethoxycarbonyl)propionyl]-1′,2′,4′-trioxa-8′-azaspiro[4.5]decane]	152.7	–
FC(F)(F)c1ccc(C2CCC3(CC2)OOC2(O3)C3CC4CC(C3)CC2C4)cc1 (stereo not shown) [OZ48, Adamantane-2-spiro-3′-8′-[4′-(trifluoromethyl)phenyl]-1′,2′,4′-trioxaspiro[4.5]decane]	156.1	–
c1ccc(C2CCC3(CC2)OOC2(O3)C3CCCC2CCC3)cc1 (stereo not shown) [OZ67, Bicyclo[3.3.1]nonane-9-spiro-3′-8′-phenyl-1′,2′,4′-trioxaspiro[4.5]decane]	162.3	antimalarial activity, overall assessment [2]: completely inactive; Activity (%) po [2]: 0/0%; Activity (%) sc [2]: 0/0%; Survival (days) po [2]: 5.0/5.0 days; Survival (days) sc [2]: 5.0/5.0 days
CON=C1CC2CC3(CC2C1)OOC1(O3)C2CC3CC(C2)CC1C3 (stereo not drawn) [OZ37, Adamantane-2-spiro-3′-1′,2′,4′-trioxolane-5′-spiro-3″-7″-methoxyimino-cis-bicyclo[3.3.0]octane]	151.2	–
c1ccc(C2(c3ccccc3)CCC3(CC2)OOC2(O3)C3CC4CC(C3)CC2C4)cc1 (stereo not shown) [OZ34, Adamantane-2-spiro-3′-8′,8′-diphenyl-1′,2′,4′-trioxaspiro[4.5]decane]	181.4	Activity (%) po [2]: 0/0%; Activity (%) sc [2]: 0/0%
O=C(O)CCC(=O)N1CCC2(CC1)OOC1(O2)C2CC3CC(C2)CC1C3 (stereo not shown) [OZ58, Adamantane-2-spiro-3′-8′-(3′-carboxypropionyl)-1′,2′,4′-trioxa-8′-azaspiro[4.5]decane]	147.0	–
FC(F)(F)c1cccc(C2(c3cccc(C(F)(F)F)c3)OOC3(O2)C2CC4CC(C2)CC3C4)c1 (stereo not shown) [OZ46, Adamantane-2-spiro-3′-5′,5′-bis[3′-(trifluoromethyl)phenyl]-1′,2′,4′-trioxolane]	161.3	–
c1ccc(C2(c3ccccc3)OOC3(O2)C2CC4CC(C2)CC3C4)cc1 (stereo not shown) [OZ42, Adamantane-2-spiro-3′-5′,5′-diphenyl-1′,2′,4′-trioxolane]	159.1	–
ON=C1CCC2(CC1)OOC1(O2)C2CC3CC(C2)CC1C3 (stereo not shown) [OZ16, Adamantane-2-spiro-3′-8′-hydroxyimino-1′,2′,4′-trioxaspiro[4.5]decane]	153.6	–
O=C1CC2CC(C1)CC1(C2)OOC2(O1)C1CC3CC(C1)CC2C3 (stereo not shown) [OZ13, Adamantane-2-spiro-3′-1′,2′,4′-trioxolane-5′-spiro-3″-7″-oxobicyclo[3.3.1]nonane]	170.1	–
O=C(O)CON=C1CCC2(CC1)OOC1(O2)C2CC3CC(C2)CC1C3 (stereo not shown) [OZ54, Adamantane-2-spiro-3′-8′-carboxymethoxyimino-1′,2′,4′-trioxaspiro[4.5]decane]	149.3	Survival (days) po [2]: 7.0/7.0 days; Survival (days) sc [2]: 7.0/7.0 days
COc1ccc(S(=O)(=O)N2CCC3(CC2)OOC2(O3)C3CC4CC(C3)CC2C4)cc1 (stereo not shown) [OZ59, Adamantane-2-spiro-3′-8′-(4′-methoxybenzenesulfonyl)-1′,2′,4′-trioxa-8′-azaspiro[4.5]decane]	152.2	–
CC1(C)COC2(CCC3(CC2)OOC2(O3)C3CCCC2CCC3)OC1 (stereo not shown) [OZ68, Bicyclo[3.3.1]nonane-9-spiro-3′-11′,11′-dimethyl-1′,2′,4′,9′,13′-pentaoxadispiro[4.2.5.2]pentadecane]	163.1	antimalarial activity, overall assessment [2]: similarly inactive
Clc1ccc(C2CCC3(CC2)OOC2(O3)C3CC4CC(C3)CC2C4)cc1 (stereo not shown) [OZ47, Adamantane-2-spiro-3′-8′-(4′-chlorophenyl)-1′,2′,4′-trioxaspiro[4.5]decane]	159.3	–
CC1(C)CCC2(CC1)OOC1(O2)C2CC3CC(C2)CC1C3 (stereo not shown) [OZ33, Adamantane-2-spiro-3′-8′,8′-dimethyl-1′,2′,4′-trioxaspiro[4.5]decane]	163.1	–
O=C(OC1CCC2(CC1)OOC1(O2)C2CC3CC(C2)CC1C3)c1ccccc1 (stereo not shown) [OZ74, Adamantane-2-spiro-3′-8′-benzoyloxy-1′,2′,4′-trioxaspiro[4.5]decane]	161.2	–
N#CC1(c2ccc(Cl)c(Cl)c2)CCC2(CC1)OOC1(O2)C2CC3CC(C2)CC1C3 (stereo not shown) [OZ75, Adamantane-2-spiro-3′-8′-cyano-8′-(3′,4′-dichlorophenyl)-1′,2′,4′-trioxaspiro[4.5]decane]	159.1	–
